What was measured:
[1] = Percent encapsulation of mRNA in lipid nanoparticles (Quant-iT Ribogreen); type: physicochemical; conditions: Table 2; leptin mRNA in LNP with the cationic lipid
Procedure, shortened: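 LNPs made by T-junction mixing of ethanolic lipids (cationic lipid:DSPC:cholesterol:PEG lipid 40:10:38:2, N:P 4:1) with mRNA in citrate pH 5.8-6.0, then dialysed against PBS overnight at 4 °C. RiboGreen fluorescence (ex 480/em 520 nm) measured in TE ± 0.75% Triton X-100; encapsulation = (total − free)/total.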

[2] = system: human leptin; assay: Human leptin in mouse plasma (ELISA) after subcutaneous injection of encapsulated leptin mRNA; type: in vivo; conditions: hLeptin, 0.2 mpk, ob/ob
[3] = system: human leptin; assay: Human leptin in mouse plasma (ELISA) after IV tail vein injection of encapsulated leptin mRNA; type: in vivo; conditions: hLeptin, 0.2 mpk, ob/ob
Method: Human leptin in mouse plasma was measured by ELISA. Antibodies purchased from the R&D Systems duoset (Cat #DY398E, part #840279 for capture antibody and part #840280 for detection antibody) were reconstituted using PBS and titered, again using PBS. The capture antibody was coated at 4 ug/ml in 30 ul/well on a white Nunc® Maxisorp 384 well plate (Cat #460372). After an overnight incubation at room temperature the capture antibody was aspirated and the plate blocked for 2 hours at room temperature with 90 ul/well of KPL milk blocker (Cat #50-82-00). Once the incubation was completed the plate was aspirated and recombinant standards and samples were added to the plate at 30 ul/well for 2 hours at 37° C. while shaking at 600 rpm. Sample/standard dilutions were made using casein sample diluent. Washing/aspiration 3 times with 100 ul/well followed, using Teknova plate wash solution (Cat #P1192). Next, detection antibody was diluted using casein detection antibody diluent to 12.5 ng/ml and added at 30 ul/well for 2 hours room temperature. After this incubation, the plate was washed again and a solution of poly-streptavidin-HRP (Cat #21140) at a 1:1250 dilution in HRP dilution buffer was added to each well (30 ul/well) and incubated for 30 minutes room temperature. A final wash/aspiration removed the HRP solution and a chemiluminescent substrate was added at 30 ul/well (Cat #1859678 & 1859679). The plate was quickly read using a SpectramaxM5 plate reader with a 50 ms integration time. The dynamic range of the ELISA is from 100-2,000 […] (6.25-125 pM) of human leptin. The assay is applicable to plasma from mice, rats and cynomolgus monkeys.
Before the tail vein injection, mouse body weights were recorded and diet weighted, with mice grouped according to their body weights. Mice were prepared by warming them under a heating lamp for ˜2 minutes, with the mice about 12 inches from heat lamp. […]
On day 0, animals were weighed and sorted according to average body weight. Mice were dosed, and food intake (FI) was recorded, on each of days 1-7 and days 9, 11, and 16.

[4] = system: Factor VII; assay: Mouse Factor VII dosing and plasma Factor VII activity assay (FVII siRNA LNP, IV); type: in vivo; conditions: 0.03 mpk, XXX mice
Method: Female CD-1 mice were received from Harlan Labs and maintained on standard lab chow and water ad libitum. The animals weighed approximately 25 gr at time of dosing. Formulated Factor VII siRNA was administered as a single dose intravenously via the lateral tail vein. Approximately 48 hours after injection, the mice were euthanized by CO2 inhalation followed by exsanguination through the vena cava.
Plasma collected from injected mice was assayed for Factor VII enzyme activity using the Biophen FVII kit from Hyphen Biomedical (catalog number 221304). An assay standard curve was prepared using pooled plasma aliquots from the vehicle control animals. All samples were diluted to fall within the linear range of the standard curve and Factor VII activity relative to control plasma was reported.
Lipid nanoparticles comprising lipid compounds of formula (I) and the FVII siRNA duplex sequence listed above were tested in the Factor VII Activity Assay. The results of this assay are given in Table 34 below as a percent knock down of plasma Factor VII enzyme activity at a dose of 0.3 mg/kg and 0.03 mg/kg.

## CCCCCCCCCCCCC(CCC(=O)OC(COC(=O)CCCCCCCCC)COC(=O)CCCCCCCCC)OC(=O)OCCCN(C)CC (stereo not shown) [Example 91, 2-((4-(((3-(ethyl(methyl)amino)propoxy)carbonyl)oxy)hexadecanoyl)oxy)propane-1,3-diyl bis(decanoate)]
[1]
  % encapsulation mRNA Leptin: 94.4%
[2]
  Expression of protein following SC injection of encapsulated mRNA: 3.5 ng/mL
[3]
  Expression of protein following IV injection of encapsulated mRNA: 33.6 ng/mL
[4]
  FVII knock-down following IV injection of encapsulated siRNA: 97%/0.03
